Test in all cases: NCI-60 cell line screen, 48 h
Experiment [1] concerns NCI-H522 lung.
The subject of experiment [2] is NCI-H460 lung.
For experiment [3], the system named is MDA-MB-231 breast.
Experiment [4] relates to LOX IMVI melanoma.
Experiment [5] relates to OVCAR-4 ovarian.
Experiment [6] deals with HOP-62 NSCLC.
For experiment [7], the system named is DU-145 prostate.
The test system of experiment [8] is UACC-62 melanoma.
Experiment [9] concerns OVCAR-3 ovarian.
The subject of experiment [10] is SNB-19 CNS.

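Method: 48-hour compound exposure of cells in 96-well plates, five concentrations, linear interpolation of endpoints. Abbreviation: GI50, concentration required for 50% inhibition of growth. TGI: total growth inhibition.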

In the case of `COc1ccc(C(=O)/C=C/c2ccc(Cl)cc2)cc1S(=O)(=O)Nc1c(N)nc(SC)[nH]c1=O`, the GI50 was 1.88 µM in experiment [1]; 2.49 µM in experiment [2]; 3.42 µM in [3]; 1.63 µM in [4]; 4.49 µM in [5]; 1.81 µM in [6]. For the same compound, the GI50 in experiment [7] is 3.58 µM; in experiment [8] it was 2.33 µM; in experiment [9], 1.94 µM; in [10], 2.52 µM. The TGI in experiment [1] is 4.08 µM; in experiment [2], 6.29 µM; in experiment [3] it was 10.5 µM; in [4], 3.22 µM; in [5], 14.9 µM; in [6], 3.97 µM. For the same compound, the TGI in [7] came to 11.5 µM; in [8], 6.65 µM; in experiment [9], 3.94 µM; in experiment [10], 8.34 µM.

As for `COc1cccc(C2=C(c3cn(C)c4ccccc34)C(=O)NC2=O)c1`, the GI50 was 6.35 µM in experiment [1]; 13.7 µM in experiment [2]; 17.4 µM in experiment [3]; 13 µM in experiment [4]; 9.61 µM in [5]; above 22.8 µM in [6]. Further, the GI50 is above 25 µM in [7], 11.5 µM in [8], 9.05 µM in experiment [9] and above 25 µM in [10]. Moreover, the TGI in [1] is 25 µM; in experiment [2], above 25 µM; in [3], above 25 µM; in experiment [4], above 25 µM; in [5] it was above 25 µM; in experiment [6], above 25 µM. Further, the TGI in experiment [7], in experiment [8], in experiment [9] and in experiment [10] was above 25 µM each time.

The values are drawn from PubChem BioAssay (NCI).
